Earlier results on one substance are cited in US8354502B2, “Bioactive peptides identified in enzymatic hydrolyzates of milk caseins and method of obtaining same” (Consejo Superior de Investigaciones Cientificas, priority 2005, dated 2013).

The data set addresses T1, angiotensin-converting enzyme (ACE) (Oryctolagus cuniculus, UniProt P12822).
T1 sequence (P12822 34-1310): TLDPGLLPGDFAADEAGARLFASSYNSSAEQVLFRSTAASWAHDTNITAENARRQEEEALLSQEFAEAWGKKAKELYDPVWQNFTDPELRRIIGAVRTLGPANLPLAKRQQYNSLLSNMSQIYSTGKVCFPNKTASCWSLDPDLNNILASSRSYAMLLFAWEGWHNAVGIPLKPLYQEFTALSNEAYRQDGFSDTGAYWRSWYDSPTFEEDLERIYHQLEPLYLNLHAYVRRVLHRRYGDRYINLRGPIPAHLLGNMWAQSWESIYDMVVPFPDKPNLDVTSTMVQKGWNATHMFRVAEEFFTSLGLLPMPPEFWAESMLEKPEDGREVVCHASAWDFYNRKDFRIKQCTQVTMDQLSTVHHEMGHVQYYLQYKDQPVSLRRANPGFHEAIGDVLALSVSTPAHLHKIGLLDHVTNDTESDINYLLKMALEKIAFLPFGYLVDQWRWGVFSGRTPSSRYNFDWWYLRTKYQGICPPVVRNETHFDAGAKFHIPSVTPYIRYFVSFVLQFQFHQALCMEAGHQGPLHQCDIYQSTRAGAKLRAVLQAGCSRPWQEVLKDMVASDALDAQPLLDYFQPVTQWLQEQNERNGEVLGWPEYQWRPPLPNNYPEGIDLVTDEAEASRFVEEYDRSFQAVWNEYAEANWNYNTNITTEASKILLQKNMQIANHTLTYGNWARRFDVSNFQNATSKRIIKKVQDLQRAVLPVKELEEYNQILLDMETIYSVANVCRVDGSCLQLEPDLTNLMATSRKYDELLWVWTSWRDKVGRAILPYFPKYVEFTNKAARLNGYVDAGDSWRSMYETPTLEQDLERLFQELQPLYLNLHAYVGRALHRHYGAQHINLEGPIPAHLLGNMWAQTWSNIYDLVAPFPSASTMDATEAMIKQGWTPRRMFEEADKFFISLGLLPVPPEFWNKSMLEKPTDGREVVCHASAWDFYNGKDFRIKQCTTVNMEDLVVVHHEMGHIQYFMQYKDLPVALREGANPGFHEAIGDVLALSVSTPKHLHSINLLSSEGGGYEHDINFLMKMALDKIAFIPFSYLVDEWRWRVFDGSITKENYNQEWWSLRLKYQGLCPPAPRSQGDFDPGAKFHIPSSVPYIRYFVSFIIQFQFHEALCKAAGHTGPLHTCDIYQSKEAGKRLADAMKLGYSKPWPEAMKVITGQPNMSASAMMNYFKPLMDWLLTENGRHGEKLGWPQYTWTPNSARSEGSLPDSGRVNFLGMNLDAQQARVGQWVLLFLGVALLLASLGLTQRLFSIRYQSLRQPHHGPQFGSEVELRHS
Particulars: peptides from Manchego cheese, Gómez-Ruiz et al. 2004; read-out: ACE-inhibitory activity IC50; cited from earlier work.

“VRYL [SEQ. ID. No. 11, previously identified 205-208 fragment of ovine αs2-casein from Manchego cheese]”: the IC50 was 24.1 µM.
